What all share (format): cell-based
For experiment [1], the target named is Melanocortin receptor 3 (Mus musculus, UniProt P33033). The experiment in a line: Activity in mouse melanocortin-3 receptor (mMC3R) stably expressed in HEK293 cells.
For experiment [2], the target named is Melanocortin receptor 5 (Mus musculus, UniProt P41149). The experiment can be described thus: Activity in mouse melanocortin-5 receptor stably expressed in HEK293 cells.
For experiment [3], the target named is Melanocortin receptor 4 (Mus musculus, UniProt P56450). The experiment can be described thus: Activity in mouse melanocortin-4 receptor stably expressed in HEK293 cells.
Experiment [4] concerns the target Melanocyte-stimulating hormone receptor (Mus musculus, UniProt Q01727). The experiment can be described thus: Activity in mouse melanocortin-1 receptor stably expressed in HEK293 cells.

pEC50: −log10 of the molar value. Some results are limits rather than exact numbers.

Chain of Melanocortin receptor 3 (P33033 whole entry): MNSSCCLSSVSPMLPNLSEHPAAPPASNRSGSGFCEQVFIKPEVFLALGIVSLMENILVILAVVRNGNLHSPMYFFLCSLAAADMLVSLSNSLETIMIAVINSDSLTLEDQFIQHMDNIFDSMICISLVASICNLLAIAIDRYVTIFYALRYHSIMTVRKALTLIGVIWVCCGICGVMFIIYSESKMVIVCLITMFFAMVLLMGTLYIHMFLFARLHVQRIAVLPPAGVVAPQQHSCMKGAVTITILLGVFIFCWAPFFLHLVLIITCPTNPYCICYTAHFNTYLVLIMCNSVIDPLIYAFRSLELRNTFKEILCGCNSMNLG
Chain of Melanocortin receptor 5 (P41149 whole entry): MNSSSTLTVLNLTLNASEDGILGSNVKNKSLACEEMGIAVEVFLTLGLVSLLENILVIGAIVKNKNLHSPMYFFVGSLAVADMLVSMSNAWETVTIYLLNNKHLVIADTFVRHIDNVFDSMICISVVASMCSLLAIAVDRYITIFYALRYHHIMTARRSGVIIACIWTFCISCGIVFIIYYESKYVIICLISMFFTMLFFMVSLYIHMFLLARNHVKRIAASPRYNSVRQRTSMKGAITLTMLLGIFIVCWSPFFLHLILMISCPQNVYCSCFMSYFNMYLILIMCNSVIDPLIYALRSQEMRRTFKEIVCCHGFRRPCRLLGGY
Chain of Melanocortin receptor 4 (P56450 whole entry): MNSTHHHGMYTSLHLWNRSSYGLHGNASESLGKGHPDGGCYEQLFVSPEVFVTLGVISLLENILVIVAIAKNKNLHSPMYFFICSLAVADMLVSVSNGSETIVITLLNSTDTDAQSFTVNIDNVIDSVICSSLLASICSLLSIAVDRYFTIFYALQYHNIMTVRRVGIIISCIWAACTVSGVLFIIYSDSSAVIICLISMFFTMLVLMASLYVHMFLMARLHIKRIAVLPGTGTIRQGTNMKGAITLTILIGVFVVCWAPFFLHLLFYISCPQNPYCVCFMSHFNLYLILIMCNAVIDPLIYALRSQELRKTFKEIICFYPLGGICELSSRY
Chain of Melanocyte-stimulating hormone receptor (Q01727 whole entry): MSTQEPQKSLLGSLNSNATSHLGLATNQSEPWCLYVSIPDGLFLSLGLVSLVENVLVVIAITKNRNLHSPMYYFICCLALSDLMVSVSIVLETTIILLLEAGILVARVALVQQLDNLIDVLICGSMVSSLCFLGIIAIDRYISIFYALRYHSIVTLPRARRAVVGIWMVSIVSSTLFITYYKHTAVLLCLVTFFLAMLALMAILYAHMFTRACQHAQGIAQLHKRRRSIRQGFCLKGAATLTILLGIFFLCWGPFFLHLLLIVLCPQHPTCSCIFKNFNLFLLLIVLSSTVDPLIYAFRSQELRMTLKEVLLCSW

For the compound `CC(=O)N[C@@H](Cc1c[nH]cn1)C(=O)NC(Cc1ccccc1)C(=O)N[C@@H](CCCN=C(N)N)C(=O)NC(Cc1ccc2ccccc2c1)C(N)=O` (stereo in doubt) [listing 1 of 2 here], in experiment [1], the pEC50 is 5.79.

Turning to `CC(=O)N[C@@H](Cc1cnc[nH]1)C(=O)N[C@H](Cc1ccccc1)C(=O)N[C@@H](CCCN=C(N)N)C(=O)N1Cc2ccccc2C[C@@H]1C(N)=O`, the negative logarithm of the EC50 (pEC50) in experiment [1] was less than 4.00; in experiment [2], 4.61; in experiment [3], 4.40; in experiment [4], 5.82.

`CC(=O)N[C@@H](Cc1cnc[nH]1)C(=O)NC(Cc1ccccc1)C(=O)N[C@@H](CCCNC(=N)N)C(=O)N[C@@H](Cc1cccc2ccccc12)C(N)=O` (stereo in doubt) [listing 1 of 2 here]: the pEC50 in experiment [1] is 4.66.

With `CC(=O)N[C@@H](Cc1cnc[nH]1)C(=O)NC(Cc1ccccc1)C(=O)N[C@@H](CCCNC(=N)N)C(=O)N[C@@H](Cc1cccc2ccccc12)C(N)=O` (stereo in doubt) [listing 2 of 2 here], the negative logarithm of the EC50 (pEC50) in experiment [2] is 6.12; in experiment [3], 5.27; in experiment [4], 6.12.

As to `CC(=O)N[C@@H](Cc1c[nH]cn1)C(=O)N[C@H](Cc1ccccc1)C(=O)N[C@@H](CCCN=C(N)N)C(=O)N[C@@H](Cc1ccccc1)C(N)=O`, the negative-log EC50 (pEC50) in experiment [2] was 6.05; in experiment [3] it was 5.11; in experiment [4], 6.28.

As for `CC(=O)N[C@@H](Cc1cnc[nH]1)C(=O)NC(Cc1ccccc1)C(=O)N[C@@H](CCCNC(=N)N)C(=O)N[C@H](Cc1csc2ccccc12)C(N)=O` (stereo in doubt) [listing 1 of 2 here], the figures for the negative-log EC50 (pEC50) in experiment [2], in experiment [3] and in experiment [4] were 7.32, 6.84 and 7.10, respectively.

For the compound `CC(=O)N[C@@H](Cc1cnc[nH]1)C(=O)NC(Cc1ccccc1)C(=O)N[C@@H](CCCNC(=N)N)C(=O)N[C@H](Cc1csc2ccccc12)C(N)=O` (stereo in doubt) [listing 2 of 2 here], the negative logarithm of the EC50 (pEC50) in experiment [1] is 5.43.

As to `CC(=O)N[C@@H](Cc1cnc[nH]1)C(=O)NC(Cc1ccccc1)C(=O)N[C@@H](CCCNC(=N)N)C(=O)N[C@@H](Cc1ccc(-c2ccccc2)cc1)C(N)=O` (stereo in doubt) [listing 1 of 2 here], the pEC50 in experiment [2] was 6.82; in experiment [3], 5.82; in experiment [4], 6.51.

As to `CC(=O)N[C@@H](Cc1cnc[nH]1)C(=O)NC(Cc1ccccc1)C(=O)N[C@@H](CCCNC(=N)N)C(=O)N[C@H](Cc1cccc2ccccc12)C(N)=O` (stereo in doubt) [listing 1 of 2 here], the pEC50 is 7.48 in experiment [2], 6.59 in experiment [3] and 6.14 in experiment [4].

In experiment [1], `CC(=O)N[C@@H](Cc1cnc[nH]1)C(=O)NC(Cc1ccccc1)C(=O)N[C@@H](CCCNC(=N)N)C(=O)N[C@H](Cc1ccncc1)C(N)=O` (stereo in doubt) [listing 1 of 2 here] gave a negative-log EC50 (pEC50) of less than 4.00.

Turning to `CC(=O)N[C@@H](Cc1cnc[nH]1)C(=O)NC(Cc1ccccc1)C(=O)N[C@@H](CCCNC(=N)N)C(=O)N[C@H](Cc1cccs1)C(N)=O` (stereo in doubt) [listing 1 of 2 here], the pEC50 in experiment [2] is 6.07; in experiment [3], 5.09; in experiment [4], 5.56.

For `CC(=O)N[C@@H](Cc1c[nH]cn1)C(=O)NC(Cc1ccccc1)C(=O)N[C@@H](CCCN=C(N)N)C(=O)NC(Cc1ccccc1)C(N)=O` (stereo in doubt) [listing 1 of 2 here], the pEC50 in experiment [1] was 4.82.

Compound `CC(=O)N[C@@H](Cc1cnc[nH]1)C(=O)NC(Cc1ccccc1)C(=O)N[C@@H](CCCNC(=N)N)C(=O)N[C@H](Cc1cccs1)C(N)=O` (stereo in doubt) [listing 2 of 2 here] gave a negative logarithm of the EC50 (pEC50) in experiment [1] of 4.52.

Regarding `CC(=O)N[C@@H](Cc1c[nH]cn1)C(=O)N[C@H](Cc1ccccc1)C(=O)N[C@@H](CCCN=C(N)N)C(=O)N[C@@H](C)C(N)=O`, the pEC50 in experiment [1] is less than 4.00; in experiment [2] it was 4.42; in experiment [3], 4.36; in experiment [4], 5.36.

Turning to `CC(=O)N[C@@H](Cc1cnc[nH]1)C(=O)NC(Cc1ccccc1)C(=O)N[C@@H](CCCNC(=N)N)C(=O)N[C@H](Cc1ccncc1)C(N)=O` (stereo in doubt) [listing 2 of 2 here], the figures for the negative logarithm of the EC50 (pEC50) in experiment [2], in experiment [3] and in experiment [4] were 4.84, 4.52 and 5.65, respectively.

With `CC(=O)N[C@@H](Cc1cnc[nH]1)C(=O)NC(Cc1ccccc1)C(=O)N[C@@H](CCCNC(=N)N)C(=O)NC(Cc1c[nH]c2ccccc12)C(N)=O` (stereo in doubt), the pEC50 in experiment [2] (hek293) was 8.40; in experiment [3] (hek293), 7.76.

As for `CC(=O)N[C@@H](Cc1c[nH]cn1)C(=O)N[C@@H](Cc1ccccc1)C(=O)N[C@@H](CCCN=C(N)N)C(=O)N[C@@H](C(N)=O)C(c1ccccc1)c1ccccc1`, the pEC50 in experiment [1] was 4.27.

As for `CC(=O)N[C@@H](Cc1c[nH]cn1)C(=O)NC(Cc1ccccc1)C(=O)N[C@@H](CCCN=C(N)N)C(=O)N[C@H](Cc1ccc(-c2ccccc2)cc1)C(N)=O` (stereo in doubt) [listing 1 of 2 here], the figures for the pEC50 in experiment [2], in experiment [3] and in experiment [4] were 7.00, 5.57 and 7.28, respectively.

The compound `CC(=O)N[C@@H](Cc1cnc[nH]1)C(=O)NC(Cc1ccccc1)C(=O)N[C@@H](CCCNC(=N)N)C(=O)N[C@H](Cc1cccc2ccccc12)C(N)=O` (stereo in doubt) [listing 2 of 2 here] showed a pEC50 in experiment [1] of 5.46.

With `CC(=O)N[C@@H](Cc1c[nH]cn1)C(=O)N[C@H](Cc1ccccc1)C(=O)N[C@@H](CCCN=C(N)N)C(=O)N[C@@]1(C(N)=O)CCc2ccccc2C1` (stereo in doubt; 20), the pEC50 in experiment [1] is 5.00; in experiment [2], 6.74; in experiment [3] it was 5.46; in experiment [4], 6.15.

Consider `CC(=O)N[C@@H](Cc1c[nH]cn1)C(=O)NC(Cc1ccccc1)C(=O)N[C@@H](CCCN=C(N)N)C(=O)N[C@H](Cc1ccc(-c2ccccc2)cc1)C(N)=O` (stereo in doubt) [listing 2 of 2 here], for which, in experiment [1], the negative logarithm of the EC50 (pEC50) is 4.87.

Consider `CC(=O)N[C@@H](Cc1cnc[nH]1)C(=O)N[C@H](Cc1ccccc1)C(=O)N[C@@H](CCCN=C(N)N)C(=O)N1Cc2ccccc2C[C@H]1C(N)=O`, for which the negative logarithm of the EC50 (pEC50) in experiment [1] is 4.63; in experiment [2], 6.15; in experiment [3] it was 5.07; in experiment [4], 7.37.

As to `CC(=O)N[C@@H](Cc1cnc[nH]1)C(=O)NC(Cc1ccccc1)C(=O)N[C@@H](CCCNC(=N)N)C(=O)NC(C(N)=O)C(c1ccccc1)c1ccccc1` (stereo in doubt) [listing 1 of 2 here], in experiment [1], the pEC50 was 4.80.

Compound `CC(=O)N[C@@H](Cc1c[nH]cn1)C(=O)NC(Cc1ccccc1)C(=O)N[C@@H](CCCN=C(N)N)C(=O)N[C@H](Cc1ccc2ccccc2c1)C(N)=O` (stereo in doubt) [listing 1 of 2 here] had a pEC50 in experiment [1] of 6.13.

As to `CC(=O)N[C@@H](Cc1cnc[nH]1)C(=O)N[C@H](Cc1ccccc1)C(=O)N[C@@H](CCCN=C(N)N)C(=O)NC(Cc1c[nH]c2ccccc12)C(N)=O` (stereo in doubt), the negative logarithm of the EC50 (pEC50) in experiment [2] is 7.45; in experiment [3] it was 6.62.

`CC(=O)N[C@@H](Cc1cnc[nH]1)C(=O)NC(Cc1ccccc1)C(=O)N[C@@H](CCCNC(=N)N)C(=O)NC(C(N)=O)C(c1ccccc1)c1ccccc1` (stereo in doubt) [listing 2 of 2 here]: the negative-log EC50 (pEC50) in experiment [2] is 5.13; in experiment [3] it was 5.11; in experiment [4], 6.17.

In turn, `CC(=O)N[C@@H](Cc1cnc[nH]1)C(=O)NC(Cc1ccccc1)C(=O)N[C@@H](CCCNC(=N)N)C(=O)N[C@@H](Cc1ccc(-c2ccccc2)cc1)C(N)=O` (stereo in doubt) [listing 2 of 2 here] showed a pEC50 in experiment [1] of 4.79.

For `CC(=O)N[C@@H](Cc1cnc[nH]1)C(=O)NC(Cc1ccccc1)C(=O)N[C@@H](CCCNC(=N)N)C(=O)N[C@H](Cc1cnc[nH]1)C(N)=O` (stereo in doubt) [listing 1 of 2 here], the pEC50 in experiment [1] is less than 4.00.

Turning to `CC(=O)N[C@@H](Cc1c[nH]cn1)C(=O)N[C@@H](Cc1ccccc1)C(=O)N[C@@H](CCCN=C(N)N)C(=O)N[C@H](Cc1ccccc1)C(N)=O`, the pEC50 in experiment [1] was 4.57.

For `CC(=O)N[C@@H](Cc1c[nH]cn1)C(=O)N[C@H](Cc1ccccc1)C(=O)N[C@@H](CCCN=C(N)N)C(=O)N[C@H](C(N)=O)C(c1ccccc1)c1ccccc1`, the pEC50 in experiment [2] was 5.15; in experiment [3], 4.94; in experiment [4], 5.64.

Turning to `CC(=O)N[C@@H](Cc1cnc[nH]1)C(=O)NC(Cc1ccccc1)C(=O)N[C@@H](CCCNC(=N)N)C(=O)N[C@H](Cc1cnc[nH]1)C(N)=O` (stereo in doubt) [listing 2 of 2 here], the negative-log EC50 (pEC50) in experiment [2] is 4.44; in experiment [3], 4.56; in experiment [4] it was 5.42.

Consider `CC(=O)N[C@@H](Cc1c[nH]cn1)C(=O)NC(Cc1ccccc1)C(=O)N[C@@H](CCCN=C(N)N)C(=O)N[C@H](Cc1ccc2ccccc2c1)C(N)=O` (stereo in doubt) [listing 2 of 2 here], for which the pEC50 in experiment [2] is 8.31; in experiment [3], 7.80; in experiment [4], 7.75.

Consider `CC(=O)N[C@@H](Cc1c[nH]cn1)C(=O)NC(Cc1ccccc1)C(=O)N[C@@H](CCCN=C(N)N)C(=O)NC(Cc1ccc2ccccc2c1)C(N)=O` (stereo in doubt) [listing 2 of 2 here], for which the negative-log EC50 (pEC50) in experiment [2] is 7.92; in experiment [3] it was 7.34; in experiment [4], 6.90.

With `CC(=O)N[C@@H](Cc1c[nH]cn1)C(=O)NC(Cc1ccccc1)C(=O)N[C@@H](CCCN=C(N)N)C(=O)NC(Cc1ccccc1)C(N)=O` (stereo in doubt) [listing 2 of 2 here], the negative logarithm of the EC50 (pEC50) in experiment [2] is 6.33; in experiment [3] it was 6.00; in experiment [4] it was 5.60.

With `CC(=O)N[C@@H](Cc1c[nH]cn1)C(=O)N[C@H](Cc1ccccc1)C(=O)N[C@@H](CCCN=C(N)N)C(=O)N[C@@]1(C(N)=O)CCc2ccccc2C1` (stereo in doubt; 21), the pEC50 is 4.47 in experiment [1], 6.02 in experiment [2], 5.06 in experiment [3] and 6.17 in experiment [4].

Values taken from ChEMBL document CHEMBL1135692, “Structure-activity relationships of the melanocortin tetrapeptide Ac-His-D-Phe-Arg-Trp-NH2 at the mouse melanocortin receptors. 4. Modifications at the Trp position” (J Med Chem, 2002).
